Tested on: hepatic cytokine and chemokine milieu
Assay: Hepatic and plasma cytokine/chemokine levels after mirtazapine treatment (Luminex, LEGENDplex)
Format: in vivo, mouse
Method: Male 8-10 week old C57BL/6 mice (Jackson Labs, Bar Harbor, Me.) were used. All procedures were approved by the University of Calgary Animal Care Committee (protocol numbers AC14-0129 and AC14-0128) and were performed in accordance with the guidelines of the Canadian Council on Animal Care. […] Mirtazapine was suspended in 1% aqueous solution of Tween 80, whereas the control group received 1% aqueous solution of Tween 80. Blood and liver samples were collected 5 hours post-mirtazapine treatment (or 16 hours post-Con A treatment). The detailed experimental protocols, lists of antibodies and reagents used, flow cytometry gating, and immune cell phenotyping strategies, are described herein. To delineate the effect of mirtazapine treatment on hepatic cytokine/chemokine expression a Luminex® assay was used using methods as previously described. […] A panel of mouse cytokines/chemokines were simultaneously measured in liver homogenate samples using a mouse MILLIPLEX kit (Millipore, USA) according to the manufacturer's protocol. The multiplexing analysis was performed using the Luminex 100 system (Luminex®, USA; Eve Technologies Corporation, Calgary, Canada). Total protein concentrations in liver homogenates were quantified using a BCA Protein Assay kit (Pierce, USA) according to manufacturers instructions. Results were expressed as pg of analyte per mg of protein. Additional plasma and hepatic measurements were made using a bead-based LEGENDplex immunoassay. Plasma and hepatic levels of CXCL10/IP-10 and CXCL9/Mig were measured using BioLegend's LEGENDplex™ bead-based immunoassays in a 96-well v-bottom microplate, according to the manufacturer's protocol. At the end of the assay, all samples were transferred from the plate to FACS tubes and read on a flow cytometer (Attune® Acoustic Focusing Cytometer). After data acquisition, flow cytometry standard (FCS) files were analyzed using Biolegend's LEGENDplex data analysis software to calculate the concentrations of individual chemokines, and results were expressed as pg of analyte per mg of protein. Alternatively, the flow cytometry standard (FCS) files were analyzed using FlowJo software (Treestar, San Carlos, Calif.).

[1] = pilot study, 4 hrs post-treatment, 20 mg/kg (FIG. 13)

Q: With CN1CCN2c3ncccc3Cc3ccccc3C2C1 (centres unmarked) [Mirtazapine] as the compound, how does the “Plasma levels of CXCL10/IP-10 and CXCL9/MIG vs vehicle” value (5 hours post-treatment) read?
A: significantly increased

Q: What about the “Increase in hepatic CXCL9 level vs vehicle” value (5 hours post-treatment, ip) of the same compound?
A: ~7 fold

Q: What about the “Increase in hepatic CXCL10 level vs vehicle” value (5 hours post-treatment, ip) of the same compound?
A: ~120 fold

Q: What about the “Increase in hepatic GM-CSF level vs vehicle” value (5 hours post-treatment, ip) of the same compound?
A: ~1.5 fold

Q: And the “Increase in hepatic IFNγ level vs vehicle” value (5 hours post-treatment, ip)?
A: ~8 fold

Q: What about the “Increase in hepatic IL-1β level vs vehicle” value (5 hours post-treatment, ip) of the same compound?
A: ~1.5 fold

Q: And the “Increase in hepatic IL-4 level vs vehicle” value (5 hours post-treatment, ip)?
A: ~30 fold

Q: And the “Increase in hepatic IL-5 level vs vehicle” value (5 hours post-treatment, ip)?
A: ~2 fold

Q: What about the “Increase in hepatic IL-6 level vs vehicle” value (5 hours post-treatment, ip) of the same compound?
A: ~1.5 fold

Q: And the “Increase in hepatic IL-12 level vs vehicle” value (5 hours post-treatment, ip)?
A: ~1.5 fold

Q: And the “Increase in hepatic IL-12p40 level vs vehicle” value (5 hours post-treatment, ip)?
A: ~1.5 fold

Q: What about the “Increase in hepatic IL-12p70 level vs vehicle” value (5 hours post-treatment, ip) of the same compound?
A: ~1.5 fold

Q: And the “Increase in hepatic IL-15 level vs vehicle” value (5 hours post-treatment, ip)?
A: ~1.5 fold

Q: What about the “Increase in hepatic IL-17 level vs vehicle” value (5 hours post-treatment, ip) of the same compound?
A: ~1.5 fold

Q: And the “Increase in hepatic TNFα level vs vehicle” value (5 hours post-treatment, ip)?
A: ~1.5 fold

Q: What about the “Hepatic levels of IL-2, IL-10, IL-13, IL-7, IL-9, M-CSF, G-CSF, LIF, IL-3, CCL3/MIP-1α, CCL4/MIP-1β, CXCL2/MIP-2, CCL11/Eotaxin-1, CCL5/RANTES” value (5 hours post-treatment, data not shown) of the same compound?
A: unaltered

Q: And the “Hepatic levels of the chemokines CXCL10/IP-10 and CXCL9/MIG vs vehicle” value (5 hours post-treatment, in words)?
A: striking increases

Q: What about the “Hepatic levels of CCL2/MCP-1, CCL4/MIP-1β, CCL5/RANTES, CCL11/eotaxin-1, CCL3/MIP-1a” value (after mirtazapine treatment) of the same compound?
A: no significant changes

Q: And the “Hepatic IL-10 levels” value [1]?
A: unchanged

Q: And the “Increase in hepatic IL-4 levels” value [1]?
A: 50 fold

— US11510928B2, “Use of mirtazapine in the treatment of inflammatory disorders, autoimmune disease and PBC” (UTI Limited Partnership, priority 2017, dated 2022)
